Source: patent US12458624B2, “Deuterium-enriched substituted phenoxyphenyl acetic acids and acylsulfonamides” (priority 2019, dated 2025)

Legend:
[1] = test system: rat prostate; experiment: In situ rat prostate, ET-1 induced contraction; assay type: in vivo, Sprague-Dawley rats; settings: ET-1 0.3 nmoles/kg intra-arterial; antagonist IA five minutes before third ET-1 injection
Description: Male Sprague-Dawley rats weighing 300-400 grams are anesthetized with urethane (1.75 g/kg, ip), a tracheal cannula is inserted, and the femoral artery is cannulated. Core body temperature is maintained at 37° C. A 4-5 cm midline abdominal incision is made to expose the bladder and prostate. The prostate is separated from the bladder and surrounding capsule by blunt dissection with a forcep. A length of surgical silk is gently secured around the anterior tips of the prostate lobes. A second length of surgical silk attached to an atraumatic needle is passed through and tied to the base of the prostate approximately 10-12 mm posterior to the first tie. The posterior ligature is secured to an anchor post whereas the anterior ligature is connected to a Grass FT03 transducer and maintained at a tension of 1 g. Signals from the transducer are amplified and recorded on a polygraph (Hewlett-Packard 8805B amplifiers and 7758 recorder, Palo Alto, CA). After equilibrating for over 15 min, the rats are administered pretreatment drugs (atropine 1 mg/kg, (+) propranolol 1 mg/kg) 10 min apart through the intra-arterial (IA) cannula. […] The response of the prostate to ET-1 is quantified by measuring the change from baseline tension to the peak of the response during the five-minute period after the third ET-1 injection. […]

[2] = test system: male mongrel dogs; experiment: Endothelin-1-induced changes in diastolic and urethral pressures in the anesthetized male dog; assay type: in vivo
Description: Methodology for Determining Whether an ET-1 Receptor Selective Antagonist could Inhibit the ET-1 Mediated Prostatic Urethral Contractions in a Mongrel Dog Model:
On separate days, two fasted male mongrel dogs (from commercial suppliers) weighing 11.0 and 12.4 kilograms (kg), are anesthetized with sodium pentobarbital at 35 mg/kg (i.v.) to effect, followed by 4 mg/kg/hr (i.v.) infusion. A cuffed endotracheal tube is inserted and each animal is ventilated with room air using a positive displacement large animal ventilator at a rate of 18 breaths/minute and an average tidal volume of 18 mL/kg body weight. Body temperature is maintained with a heating pad and heat lamp using a temperature controller and esophageal probe. Two catheters are placed in the aorta via the femoral arteries (one in each artery) for administration of endothelin or phenylephrine and for continuous direct monitoring of blood pressure and heart rate using a Statham blood pressure transducer (Spectramed) and a computer system (Modukar Instruments, Inc.). Two other catheters are placed in the vena cava via the femoral veins (one catheters in each vein) for administration of pentobarbital and N-(4-isopropyl (d7)-benzenesulfonyl)-α-(4-carboxy-2-n-propylphenoxy)-3,4-methylenedioxyphenylacetamide dipotassium salt.
A supra-pubic incision approximately one-half inch lateral to the penis is made to expose the ureters, urinary bladder, prostate, and urethra. The dome of the bladder is retracted to facilitate dissection of the ureters. The ureters are cannulated with PE 90 and tied off to the bladder. Umbilical tape is passed beneath the urethra at the bladder neck and another piece of tape is placed approximately 1-2 cm distal to the prostate. The bladder is incised and a Micro-tip catheter transducer is advanced into the urethra. The neck of the bladder is ligated with the umbilical tape to hold the transducer. The bladder incision is sutured with 3-0 silk (purse string suture). The transducer is withdrawn until it is positioned in the prostatic urethra. The position of the Micro-tip catheter is verified by gently squeezing the prostate and noting the large change in urethral pressure prior to ligating the distal urethra.
Phenylephrine (10 μg/kg, intra-arterial) is administered and pressor effects on diastolic blood pressure (DBP) and intra-urethral pressure (IUP) is noted. When blood pressure returned to baseline, endothelin-1 (1 nmole/kg, intra-arterial) is administered. Changes in DBP and IUP are monitored for one hour and an ET-1 selective endothelin antagonist, such as the deuterated compound, N-(4-isopropyl(d7)benzenesulfonyl)-α-(4-carboxy-2-n-propylphenoxy)-3,4-methylenedioxyphenyl-acetamide dipotassium salt (30 mg/kg, intra-venous), is administered. […] Phenylephrine is administered at the end of experiment to verify specificity for ET-1 blockade. The dogs are euthanized with an overdose of pentobarbital followed by saturated KCl.
The drugs utilized in the experiment described above are: • (1) Phenylephrine, HCl (PE) (Sigma Chemical Co.) is given at a volume of 0.05 mL/kg; • (2) Endothelin-1 (ET-1) (Human, Porcine, Canine, rat, Mouse, Bovine) is given at a volume of 0.05 mL/kg; • (3) ET-1 selective antagonist, such as the deuterated compound N-(4-isopropyl(d7)benzenesulfonyl)-α-(4-carboxy-2-n-propyl-[…]phenoxy)-3,4-methylenedioxyphenyl-acetamide dipotassium salt, is given at a volume of 0.3 mL/kg. • All drugs are dissolved in isotonic saline solution.

[3] = test system: canine model of renovascular hypertension; settings: J. Hypertens. 1998, 16, 835-841; cited from earlier work
[4] = 30 mg/kg i.v., ET-1 1 nmole/kg intra-arterial challenge ten to 15 minutes after administration
[5] = PE 10 μg/kg intra-arterial after antagonist 30 mg/kg i.v., one dog
[6] = ET-1 1 nmole/kg intra-arterial, before antagonist, average

SMILES: [2H]C([2H])([2H])C([2H])(c1ccc(S(=O)(=O)NC(=O)C(Oc2ccc(C(=O)[O-])cc2CCC)c2ccc3c(c2)OCO3)cc1)C([2H])([2H])[2H].[2H]C([2H])([2H])C([2H])(c1ccc(S(=O)(=O)NC(=O)C(Oc2ccc(C(=O)[O-])cc2CCC)c2ccc3c(c2)OCO3)cc1)C([2H])([2H])[2H].[K+].[K+] (stereo not drawn) [N-(4-isopropyl(d7)benzenesulfonyl)-α-(4-carboxy-2-n-propylphenoxy)-3,4-methylenedioxyphenylacetamide Dipotassium Salt]
- effect on ET-1 contraction of the prostate [1]: specific inhibition
- inhibition of ET-1 depressor effect on DBP [2, 4]: 70%
- inhibition of ET-1 pressor effect on DBP [2, 4]: 75%
- inhibition of ET-1 pressor effect on IUP [2, 4]: 94%
- inhibition of phenylephrine-induced increase in DBP [2, 5]: 33%
- inhibition of phenylephrine-induced increase in IUP [2, 5]: 11%
- hemodynamic and prostatic urethral responses to ET-1 ([2]; anesthetized dogs): specifically inhibited
- change of intra-arterial phenylephrine-induced increases in DBP and IUP after administration ([2]; one dog, specificity check): did not change significantly

SMILES: CCCCc1nc(Cl)c(CO)n1Cc1ccc(-c2ccccc2-c2nn[nH]n2)cc1 [Losartan]
- reduction in mean arterial blood pressure [3]: 20 mmHg

SMILES: CC[C@H](C)[C@H](NC(=O)[C@H](CC(=O)O)NC(=O)[C@H](CC(C)C)NC(=O)[C@H](Cc1c[nH]cn1)NC(=O)[C@@H]1CSSC[C@H](N)C(=O)N[C@@H](CO)C(=O)N[C@H]2CSSC[C@H](NC(=O)[C@H](CCC(=O)O)NC(=O)[C@H](CCCCN)NC(=O)[C@H](CC(=O)O)NC(=O)[C@H](CCSC)NC(=O)[C@H](CC(C)C)NC(=O)[C@H](CO)NC(=O)[C@H](CO)NC2=O)C(=O)N[C@@H](C(C)C)C(=O)N[C@@H](Cc2ccc(O)cc2)C(=O)N[C@@H](Cc2ccccc2)C(=O)N1)C(=O)N[C@H](C(=O)N[C@@H](Cc1c[nH]c2ccccc12)C(=O)O)[C@@H](C)CC [ET-1, reference compound]
- increase in IUP [2, 6]: 15 mmHg
- peak pressor effect on DBP [2, 6]: 25 mmHg
- decrease in DBP (initial depressor effect) ([2]; ET-1 1 nmole/kg intra-arterial, before antagonist, average of both dogs): 15 mmHg
